Test results published in ChEMBL document CHEMBL4609992, “Discovery of novel small molecule induced selective degradation of the bromodomain and extra-terminal (BET) bromodomain protein BRD4 and BRD2 with cellular potencies” (Bioorg Med Chem, 2020).
The source made the active and inactive calls. The calls are words filed in the database; no cut-off is given here.

Assays:
NCI-H226 = assay: Growth inhibition of human NCI-H226 cells assessed as cell growth inhibition incubated for 48 hrs by sulforhodamine B assay; assay type: functional; details: NCI-H226, 48 h
TK-10 = assay: Growth inhibition of human TK10 cells assessed as cell growth inhibition incubated for 48 hrs by sulforhodamine B assay; assay type: functional; details: TK-10, 48 h
CAKI-1 = assay: Growth inhibition of human Caki1 cells assessed as cell growth inhibition incubated for 48 hrs by sulforhodamine B assay; assay type: functional; details: CAKI-1, 48 h
OVCAR-5 = assay: Growth inhibition of human OVCAR5 cells assessed as cell growth inhibition incubated for 48 hrs by sulforhodamine B assay; assay type: functional; details: OVCAR-5, 48 h
HOP-92 = assay: Growth inhibition of human HOP92 cells assessed as cell growth inhibition incubated for 48 hrs by sulforhodamine B assay; assay type: functional; details: HOP-92, 48 h
MCF7 = assay: Growth inhibition of human MCF7 cells assessed as cell growth inhibition incubated for 48 hrs by sulforhodamine B assay; assay type: functional; details: MCF7, 48 h
UACC-62 = assay: Growth inhibition of human UACC62 cells assessed as cell growth inhibition incubated for 48 hrs by sulforhodamine B assay; assay type: functional; details: UACC-62, 48 h
[1] = target: Protein cereblon/Bromodomain-containing protein 2/Cullin-4A (Homo sapiens) (UniProt P25440+Q96SW2+Q13619); assay: Protac activity at cereblon/cullin4A/BRD2 in human MV4-11 cells assessed as induction of BRD2 degradation at 50 nM measured after 18 hrs by Western blot analysis; assay type: cell-based
Hs-578T = assay: Growth inhibition of human Hs 578T cells assessed as cell growth inhibition incubated for 48 hrs by sulforhodamine B assay; assay type: functional
NCI-H1975 = assay: Antiproliferative activity against human NCI-H1975 cells assessed as reduction in cell viability; assay type: functional, cell-based
IGROV-1 = assay: Growth inhibition of human IGROV1 cells assessed as cell growth inhibition incubated for 48 hrs by sulforhodamine B assay; assay type: functional; details: IGROV-1, 48 h
SNB-19 = assay: Growth inhibition of human SNB19 cells assessed as cell growth inhibition incubated for 48 hrs by sulforhodamine B assay; assay type: functional; details: SNB-19, 48 h
[2] = target: T1, Protein cereblon/Bromodomain-containing protein 4/Cullin-4A (Homo sapiens) (UniProt O60885+Q96SW2+Q13619); assay: Protac activity at cereblon/cullin4A/BRD4 in human MV4-11 cells assessed as induction of BRD4 degradation at 1 to 500 nM measured after 18 hrs by Western blot analysis; assay type: cell-based
BT-549 = assay: Growth inhibition of human BT549 cells assessed as cell growth inhibition incubated for 48 hrs by sulforhodamine B assay; assay type: functional; details: BT-549, 48 h
EKVX = assay: Growth inhibition of human EKVX cells assessed as cell growth inhibition incubated for 48 hrs by sulforhodamine B assay; assay type: functional
MV4-11 [3] = assay: Induction of apoptosis in human MV4-11 cells at < 100 nM measured after 24 hrs by Annexin V-FITC/propidium iodide staining based FACScan flow cytometry relative to control; assay type: functional
A-375 = assay: Antiproliferative activity against human A375 cells assessed as reduction in cell viability; assay type: functional, cell-based
NCI-H23 = assay: Growth inhibition of human NCI-H23 cells assessed as cell growth inhibition incubated for 48 hrs by sulforhodamine B assay; assay type: functional; details: NCI-H23, 48 h
SK-OV-3 = assay: Growth inhibition of human SKOV3 cells assessed as cell growth inhibition incubated for 48 hrs by sulforhodamine B assay; assay type: functional; details: SK-OV-3, 48 h
SF-295 = assay: Growth inhibition of human SF295 cells assessed as cell growth inhibition incubated for 48 hrs by sulforhodamine B assay; assay type: functional; details: SF-295, 48 h
MV4-11 [4] = assay: Antiproliferative activity against human MV4-11 cells assessed as reduction in cell viability; assay type: functional, cell-based
RPMI-8226 = assay: Antiproliferative activity against human RPMI8226 cells assessed as reduction in cell viability; assay type: functional, cell-based
NCI-H1650 = assay: Antiproliferative activity against human NCI-H1650 cells assessed as reduction in cell viability; assay type: functional, cell-based
[5] = target: T1, Protein cereblon/Bromodomain-containing protein 4/Cullin-4A (Homo sapiens); assay: Protac activity at cereblon/cullin4A/BRD4 in human MV4-11 cells assessed as induction of BRD4 degradation at 50 nM measured after 18 hrs by Western blot analysis relative to control; assay type: cell-based
HCC827 = assay: Antiproliferative activity against human HCC827 cells assessed as reduction in cell viability; assay type: functional, cell-based
VCaP = assay: Antiproliferative activity against human VCaP cells assessed as reduction in cell viability; assay type: functional, cell-based
MV4-11 [6] = assay: Induction of apoptosis in human MV4-11 cells measured after 24 hrs by Annexin V-FITC/propidium iodide staining based FACScan flow cytometry; assay type: functional, cell-based
M14 = assay: Growth inhibition of human M14 cells assessed as cell growth inhibition incubated for 48 hrs by sulforhodamine B assay; assay type: functional; details: M14, 48 h
CCRF-CEM = assay: Growth inhibition of human CCRF-CEM cells assessed as cell growth inhibition incubated for 48 hrs by sulforhodamine B assay; assay type: functional
DU-145 = assay: Growth inhibition of human DU145 cells assessed as cell growth inhibition incubated for 48 hrs by sulforhodamine B assay; assay type: functional; details: DU-145, 48 h
A549 = assay: Antiproliferative activity against human A549 cells assessed as reduction in cell viability; assay type: functional, cell-based
HCC 2998 = assay: Growth inhibition of human HCC2998 cells assessed as cell growth inhibition incubated for 48 hrs by sulforhodamine B assay; assay type: functional; details: HCC 2998, 48 h
MV4-11 [7] = assay: Cell cycle arrest in human MV4-11 cells assessed as accumulation at G1 phase at 100 nM measured after 24 hrs by RNase/propidium iodide staining based FACScan flow cytometry (reference value: 59.66 %); assay type: functional
MV4-11 [8] = assay: Induction of apoptosis in human MV4-11 cells at < 30 nM measured after 48 hrs by Annexin V-FITC/propidium iodide staining based FACScan flow cytometry relative to control; assay type: functional
PC-3 = assay: Antiproliferative activity against human PC3 cells assessed as reduction in cell viability; assay type: functional, cell-based
SNB-75 = assay: Growth inhibition of human SNB75 cells assessed as cell growth inhibition incubated for 48 hrs by sulforhodamine B assay; assay type: functional; details: SNB-75, 48 h
COLO 205 = assay: Growth inhibition of human COLO205 cells assessed as cell growth inhibition incubated for 48 hrs by sulforhodamine B assay; assay type: functional; details: COLO 205, 48 h
OVCAR-8 = assay: Growth inhibition of human OVCAR8 cells assessed as cell growth inhibition incubated for 48 hrs by sulforhodamine B assay; assay type: functional; details: OVCAR-8, 48 h
SK-MEL-5 = assay: Growth inhibition of human SK-MEL-5 cells assessed as cell growth inhibition incubated for 48 hrs by sulforhodamine B assay; assay type: functional; details: SK-MEL-5, 48 h
SF-268 = assay: Growth inhibition of human SF268 cells assessed as cell growth inhibition incubated for 48 hrs by sulforhodamine B assay; assay type: functional; details: SF-268, 48 h
HCT-116 = assay: Growth inhibition of human HCT116 cells assessed as cell growth inhibition incubated for 48 hrs by sulforhodamine B assay; assay type: functional; details: HCT-116, 48 h
SF-539 = assay: Growth inhibition of human SF539 cells assessed as cell growth inhibition incubated for 48 hrs by sulforhodamine B assay; assay type: functional; details: SF-539, 48 h

Sequence of Protein cereblon/Bromodomain-containing protein 2/Cullin-4A (Homo sapiens) (P25440 whole entry, looked up): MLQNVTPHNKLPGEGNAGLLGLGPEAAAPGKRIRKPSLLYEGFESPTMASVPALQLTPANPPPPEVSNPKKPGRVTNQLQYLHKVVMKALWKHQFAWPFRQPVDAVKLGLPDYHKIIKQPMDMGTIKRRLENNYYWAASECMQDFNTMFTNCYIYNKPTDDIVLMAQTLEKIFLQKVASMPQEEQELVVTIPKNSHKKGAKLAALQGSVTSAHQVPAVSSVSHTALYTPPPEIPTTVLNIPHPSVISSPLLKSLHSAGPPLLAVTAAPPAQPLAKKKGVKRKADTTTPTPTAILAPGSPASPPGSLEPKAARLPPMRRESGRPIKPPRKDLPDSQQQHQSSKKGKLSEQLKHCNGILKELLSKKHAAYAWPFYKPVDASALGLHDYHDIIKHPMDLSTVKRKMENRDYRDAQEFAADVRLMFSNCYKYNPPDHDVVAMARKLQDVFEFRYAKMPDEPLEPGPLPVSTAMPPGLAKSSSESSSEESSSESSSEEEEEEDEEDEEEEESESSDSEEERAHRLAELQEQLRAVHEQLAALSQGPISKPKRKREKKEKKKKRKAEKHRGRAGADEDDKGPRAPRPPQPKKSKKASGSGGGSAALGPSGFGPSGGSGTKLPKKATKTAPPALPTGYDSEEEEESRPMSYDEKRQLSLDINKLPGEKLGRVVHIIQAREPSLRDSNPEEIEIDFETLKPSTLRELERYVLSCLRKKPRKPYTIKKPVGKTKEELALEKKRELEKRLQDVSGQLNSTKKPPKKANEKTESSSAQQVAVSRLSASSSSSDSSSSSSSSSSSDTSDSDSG
Sequence of Protein cereblon/Bromodomain-containing protein 2/Cullin-4A (Homo sapiens) (Q13619 whole entry, looked up): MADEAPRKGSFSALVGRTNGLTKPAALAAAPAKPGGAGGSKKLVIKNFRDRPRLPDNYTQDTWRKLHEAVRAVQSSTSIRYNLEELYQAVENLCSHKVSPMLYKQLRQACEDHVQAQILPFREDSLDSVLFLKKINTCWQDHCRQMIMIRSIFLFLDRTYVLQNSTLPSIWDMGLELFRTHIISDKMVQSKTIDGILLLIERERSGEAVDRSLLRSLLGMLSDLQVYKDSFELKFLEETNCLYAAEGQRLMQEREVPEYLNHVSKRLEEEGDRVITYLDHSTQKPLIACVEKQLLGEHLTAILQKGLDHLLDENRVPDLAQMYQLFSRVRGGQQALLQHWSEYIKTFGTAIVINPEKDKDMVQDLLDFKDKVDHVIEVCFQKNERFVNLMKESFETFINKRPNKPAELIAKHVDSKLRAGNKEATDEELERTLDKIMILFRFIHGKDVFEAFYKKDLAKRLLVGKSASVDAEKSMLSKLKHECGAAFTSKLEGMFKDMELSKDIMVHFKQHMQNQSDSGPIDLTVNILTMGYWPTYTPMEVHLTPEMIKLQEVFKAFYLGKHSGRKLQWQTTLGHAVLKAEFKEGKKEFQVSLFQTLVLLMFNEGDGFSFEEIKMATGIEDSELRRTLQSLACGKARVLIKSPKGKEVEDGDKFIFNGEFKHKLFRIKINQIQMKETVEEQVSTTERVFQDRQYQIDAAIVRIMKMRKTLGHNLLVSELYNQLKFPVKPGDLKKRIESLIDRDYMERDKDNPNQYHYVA
Sequence of Protein cereblon/Bromodomain-containing protein 2/Cullin-4A (Homo sapiens) (Q96SW2 whole entry, looked up): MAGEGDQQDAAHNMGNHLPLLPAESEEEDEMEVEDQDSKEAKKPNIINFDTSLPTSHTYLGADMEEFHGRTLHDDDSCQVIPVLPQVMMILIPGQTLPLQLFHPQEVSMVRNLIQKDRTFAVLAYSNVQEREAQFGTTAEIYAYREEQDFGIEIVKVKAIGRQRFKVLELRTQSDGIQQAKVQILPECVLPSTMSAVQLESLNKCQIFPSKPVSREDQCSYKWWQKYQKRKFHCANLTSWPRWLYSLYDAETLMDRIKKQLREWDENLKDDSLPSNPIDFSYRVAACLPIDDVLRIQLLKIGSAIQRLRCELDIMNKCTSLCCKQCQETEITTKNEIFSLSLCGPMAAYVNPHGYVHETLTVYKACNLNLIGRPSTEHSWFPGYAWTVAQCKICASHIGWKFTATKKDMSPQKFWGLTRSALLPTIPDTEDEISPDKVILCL

COc1ccccc1S(=O)(=O)Nc1ccc2c3c(cc(CCC(=O)NCCCCNc4cccc5c4C(=O)N(C4CCC(=O)NC4=O)C5=O)cc13)C(=O)N2C (configuration not stated)
GI50 (NCI-H226): 456 nM | GI50 (TK-10): 895 nM | GI50 (CAKI-1): 2630 nM | GI50 (OVCAR-5): 2740 nM | GI50 (HOP-92): 26 nM | GI50 (MCF7): 303 nM | GI50 (UACC-62): 5450 nM | Activity [1]: Active | GI50 (Hs-578T): 186 nM | IC50 (NCI-H1975): 459 nM | GI50 (IGROV-1): 145 nM | GI50 (SNB-19): 475 nM | Activity [2]: Active | GI50 (BT-549): 78 nM | GI50 (EKVX): 7480 nM | Activity (MV4-11 [3]): 80% | IC50 (A-375): 2440 nM | GI50 (NCI-H23): 37500 nM | GI50 (SK-OV-3): 1630 nM | GI50 (SF-295): 3220 nM | IC50 (MV4-11 [4]): 9.79 nM | IC50 (RPMI-8226): 440 nM | IC50 (NCI-H1650): 1330 nM | Activity [5]: 100% | IC50 (HCC827): 580 nM | IC50 (VCaP): 250 nM | Activity (MV4-11 [6]): Dose-dependent effect | GI50 (M14): 937 nM | GI50 (CCRF-CEM): 28 nM | GI50 (DU-145): 5910 nM | IC50 (A549): 13700 nM | GI50 (HCC 2998): 316 nM | Activity (MV4-11 [7]): 71.37% | Activity (MV4-11 [8]): 86.86% | IC50 (PC-3): 932 nM | GI50 (SNB-75): 89 nM | GI50 (COLO 205): 495 nM | GI50 (OVCAR-8): 360 nM | GI50 (SK-MEL-5): 1120 nM | GI50 (SF-268): 366 nM | GI50 (HCT-116): 3660 nM | GI50 (SF-539): 752 nM
